The values below come from ChEMBL document CHEMBL4483862, “Open-source discovery of chemical leads for next-generation chemoprotective antimalarials” (2018).

For the experiment, the system named is Plasmodium berghei. The experiment can be described thus: Luciferase/luciferin-expressing antifolate-resistant parasites were used to infect a culture of HepG2 cells that were pre-incubated with compounds. Infected hepatocytes emit light due to the luciferase reaction. Assay results are presented as the percent inhibition of light emission compared to control. […]. It counts as functional. The settings on record: sporozoite; for IC50: read-out: LUCIFERASE INFECTION ASSAY - IC50; for IC90: read-out: LUCIFERASE INFECTION ASSAY - IC90.

Usually IC50 stands for the concentration at which inhibition is half-maximal. What is called IC90 is the point of the concentration-response curve where the effect stands at 90%. For `CN(C)c1cccc(-c2ccc3nnc(-c4cscn4)n3c2)c1`, the IC50 is greater than 10 µM and the IC90 is greater than 10 µM.

Turning to `COc1ccc(-c2ccc3nnc(-c4cscn4)n3c2)c(C)c1`, the IC50 is greater than 10 µM and the IC90 is greater than 10 µM.

Regarding `Cc1ccc(C(O)c2nnc(Nc3cc(C(F)(F)F)ccc3F)s2)cc1` (stereo unspecified), the IC50 was greater than 10 µM and the IC90 was greater than 10 µM.

For `OC(c1cc(F)c(F)c(F)c1)c1nnc(Nc2cccc(Cl)c2)s1` (stereo unspecified), the IC50 was greater than 10 µM and the concentration for an effect of 90% (IC90) is greater than 10 µM.

Take `CNC(=O)c1cccc(-c2cc(C3(CNc4ccccc4F)CC3)ccn2)c1`: the IC50 was greater than 10 µM and the IC90 was greater than 10 µM.

For `COc1cc(NC(=O)c2csc(C(O)c3cccc(C(F)(F)F)c3)n2)cc(OC)c1OC` (stereo unspecified), the IC50 is greater than 10 µM and the concentration for an effect of 90% (IC90) is greater than 10 µM.

On to `CC(C)c1cccc(-c2ccc3nnc(-c4ccc(OCCCN(C)C)cc4)n3c2)c1`, for which the IC50 is greater than 10 µM and the IC90 is greater than 10 µM.

Consider `CN(C)c1cccc(NCC2(c3ccnc(-c4ccccc4Cl)c3)CC2)c1`, for which the IC50 was greater than 10 µM and the IC90 was greater than 10 µM.

On to `COc1cc(-c2ccnc3n[nH]c(-c4ccccc4)c23)cc(OC)c1OC`, for which the IC50 stood at 3.13 µM and the IC90 is greater than 10 µM.

On to `O=C(Nc1cccc(Cl)c1)c1csc(C(O)C2CCCCC2)n1` (stereo unspecified), for which the IC50 was greater than 10 µM and the IC90 is greater than 10 µM.

`FC(F)(F)c1cccc(-c2ccc3nnc(-c4cccc(Cl)c4)n3c2)c1`: the IC50 was greater than 10 µM and the concentration for an effect of 90% (IC90) is greater than 10 µM.

`O=C(Nc1ccc2c(c1)OCO2)c1csc(C(O)c2cccc(C(F)(F)F)c2)n1` (stereo unspecified): the IC50 was greater than 10 µM and the IC90 was greater than 10 µM.

Turning to `COc1cccc(-c2ccnc3n[nH]c(-c4cccc(C(F)(F)F)c4)c23)c1`, the half-maximal inhibitory concentration (IC50) is greater than 10 µM and the IC90 is greater than 10 µM.

As for `COc1ccc(Sc2ccc(NC(=O)c3ccc(F)cc3)cc2C#N)cc1`, the IC50 is greater than 8.72 µM and the IC90 was greater than 8.72 µM.

Consider `CC(C)c1ccc(-c2ccc3nnc(-c4ccc(OCCCN(C)C)cc4)n3c2)cc1`, for which the IC50 was greater than 10 µM and the IC90 is greater than 10 µM.

For the molecule `CN(C)c1nn(C(=S)Nc2cccc(C(F)(F)F)c2)cc1-c1ccccc1`, the IC50 was greater than 8.45 µM and the IC90 was greater than 8.45 µM.

In the case of `COc1cccc(NCC2(c3ccnc(-c4ccccc4Cl)c3)CC2)c1`, the IC50 is greater than 10 µM and the IC90 was greater than 10 µM.

As for `CN(C)C(=O)c1ccc(-c2ccnc3n[nH]c(-c4cccc(Cl)c4)c23)cc1`, the IC50 was 4.64 µM and the 90% effect concentration (IC90) was greater than 10 µM.

`COc1cccc(NC(=O)c2csc(C(O)c3cccc(C(F)(F)F)c3)n2)c1` (stereo unspecified): the IC50 is greater than 10 µM and the IC90 is greater than 10 µM.

Regarding `CS(=O)(=O)c1ccc(-c2cc(C3(CNc4cccc(Cl)c4)CC3)ccn2)cc1`, the half-maximal inhibitory concentration (IC50) is greater than 10 µM and the IC90 was greater than 10 µM.

For `CC(C)c1cccc(Nc2nnc(C(O)c3ccccc3Cl)s2)c1` (stereo unspecified), the IC50 was greater than 10 µM and the IC90 was greater than 10 µM.

As for `O=C(NC1CC1)c1csc(C(O)c2cccc(Cl)c2)n1` (stereo unspecified), the IC50 amounted to 3.36 µM and the IC90 was greater than 10 µM.

Regarding `Fc1ccc(CNCC2(c3ccnc(-c4ccc(Cl)cc4)c3)CC2)cc1F`, the IC50 was greater than 10 µM and the IC90 is greater than 10 µM.

For `O=C(Nc1ccc(Oc2ccccc2)cc1)c1csc(C(O)c2ccccc2)n1` (stereo unspecified), the IC50 amounted to 1.63 µM and the IC90 was 7.41 µM.

As to `COc1ccc(-c2cc(C3(CNCc4ccc(N(C)C)cc4)CC3)ccn2)cn1`, the IC50 was greater than 10 µM and the IC90 is greater than 10 µM.

As for `O=C(Nc1cccc(F)c1)C1(c2ccnc(Nc3ccc(C(F)(F)F)cc3)c2)CC1`, the IC50 is greater than 10 µM and the IC90 was greater than 10 µM.

Regarding `O=C(Nc1ccc(F)cc1)c1csc(C(O)c2cccc(Cl)c2)n1` (stereo unspecified), the IC50 is greater than 10 µM and the IC90 was greater than 10 µM.

Take `OC(c1ccc(Cl)cc1)c1nnc(Nc2cc(C(F)(F)F)ccc2F)s1` (stereo unspecified): the IC50 was greater than 10 µM and the IC90 was greater than 10 µM.
